Experimental data taken from publication PMC8745332, “Synthesis, Molecular Docking and Biological Characterization of Pyrazine Linked 2-Aminobenzamides as New Class I Selective Histone Deacetylase (HDAC) Inhibitors with Anti-Leukemic Activity” (International Journal of Molecular Sciences, 2021).

Key:
human HDAC2 = biological target: T1, human HDAC2 (Homo sapiens, UniProt Q92769); assay: In vitro HDAC2 inhibition assay, fluorogenic p53 peptide Ac-RHKK(Acetyl)-AMC; assay type: biochemical; settings: 3 nM HDAC2, 20 µM substrate, 30 min, 37 °C
T1 construct: purchased ENZO Life Sciences AG (Lausen, CH)
T1 sequence (Q92769 whole entry): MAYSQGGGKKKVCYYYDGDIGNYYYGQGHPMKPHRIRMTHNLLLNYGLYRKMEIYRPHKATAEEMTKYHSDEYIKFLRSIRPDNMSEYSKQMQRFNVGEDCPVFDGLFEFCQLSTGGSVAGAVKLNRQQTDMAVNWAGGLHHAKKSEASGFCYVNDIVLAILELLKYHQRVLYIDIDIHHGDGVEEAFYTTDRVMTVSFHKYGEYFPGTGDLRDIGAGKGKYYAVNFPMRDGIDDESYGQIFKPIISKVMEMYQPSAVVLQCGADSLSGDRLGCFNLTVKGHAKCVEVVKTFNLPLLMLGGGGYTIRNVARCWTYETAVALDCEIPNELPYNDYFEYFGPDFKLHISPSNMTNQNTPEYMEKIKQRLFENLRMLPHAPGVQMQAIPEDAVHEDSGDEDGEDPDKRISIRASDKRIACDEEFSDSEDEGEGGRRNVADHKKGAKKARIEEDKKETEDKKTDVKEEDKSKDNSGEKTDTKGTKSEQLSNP
Experimental: (§1) Recombinant human HDAC1, HDAC2, and HDAC3/NCOR1 were purchased from ENZO Life Sciences AG (Lausen, CH). Recombinant human HDAC 4, HDAC5, HDAC7, HDAC9 and HDAC11 were produced by Barinka lab in Prague, as described before. Recombinant human HDAC8 was produced by Romier et al. (IGBMC, Univ. Strasbourg), as described in [55].
The in vitro testing on recombinant HDACs 1-3 were performed with a fluorogenic peptide derived from p53 (Ac-RHKK(Acetyl)-AMC). The measurements were performed in an assay buffer (50 mM Hepes, 150 mM NaCl, 5 mM MgCl2, 1 mM TCEP and 0.2 mg/mL BSA, pH 7.4 adjusted with NaOH) at 37 °C. Inhibitors at different concentrations were incubated with 10 nM HDAC1, 3 nM HDAC2 or 3 nM HDAC3 (final concentration) for at least 5 min. The reaction was started with the addition of the fluorogenic substrate (20 µM final concentration) and incubated for 30 min for HDAC2 and HDAC3 and 90 min for HDAC1. The reaction was stopped with a solution of 1 mg/mL trypsin and 20 µM SAHA in 1 mM HCl and incubated for 1 h at 37 °C. […] The received fluorescence intensities were normalized with uninhibited reaction as 100% and the reaction without enzyme as 0%. A nonlinear regression analysis was done to determine the IC50 value.

human HDAC4 = biological target: T2, human HDAC4 (Homo sapiens, UniProt P56524); assay: HDAC4 dose response, substrate Abz-SRGGK(thio-TFA)FFRR-NH2; assay type: biochemical
T2 construct: made in house
T2 sequence (P56524 whole entry): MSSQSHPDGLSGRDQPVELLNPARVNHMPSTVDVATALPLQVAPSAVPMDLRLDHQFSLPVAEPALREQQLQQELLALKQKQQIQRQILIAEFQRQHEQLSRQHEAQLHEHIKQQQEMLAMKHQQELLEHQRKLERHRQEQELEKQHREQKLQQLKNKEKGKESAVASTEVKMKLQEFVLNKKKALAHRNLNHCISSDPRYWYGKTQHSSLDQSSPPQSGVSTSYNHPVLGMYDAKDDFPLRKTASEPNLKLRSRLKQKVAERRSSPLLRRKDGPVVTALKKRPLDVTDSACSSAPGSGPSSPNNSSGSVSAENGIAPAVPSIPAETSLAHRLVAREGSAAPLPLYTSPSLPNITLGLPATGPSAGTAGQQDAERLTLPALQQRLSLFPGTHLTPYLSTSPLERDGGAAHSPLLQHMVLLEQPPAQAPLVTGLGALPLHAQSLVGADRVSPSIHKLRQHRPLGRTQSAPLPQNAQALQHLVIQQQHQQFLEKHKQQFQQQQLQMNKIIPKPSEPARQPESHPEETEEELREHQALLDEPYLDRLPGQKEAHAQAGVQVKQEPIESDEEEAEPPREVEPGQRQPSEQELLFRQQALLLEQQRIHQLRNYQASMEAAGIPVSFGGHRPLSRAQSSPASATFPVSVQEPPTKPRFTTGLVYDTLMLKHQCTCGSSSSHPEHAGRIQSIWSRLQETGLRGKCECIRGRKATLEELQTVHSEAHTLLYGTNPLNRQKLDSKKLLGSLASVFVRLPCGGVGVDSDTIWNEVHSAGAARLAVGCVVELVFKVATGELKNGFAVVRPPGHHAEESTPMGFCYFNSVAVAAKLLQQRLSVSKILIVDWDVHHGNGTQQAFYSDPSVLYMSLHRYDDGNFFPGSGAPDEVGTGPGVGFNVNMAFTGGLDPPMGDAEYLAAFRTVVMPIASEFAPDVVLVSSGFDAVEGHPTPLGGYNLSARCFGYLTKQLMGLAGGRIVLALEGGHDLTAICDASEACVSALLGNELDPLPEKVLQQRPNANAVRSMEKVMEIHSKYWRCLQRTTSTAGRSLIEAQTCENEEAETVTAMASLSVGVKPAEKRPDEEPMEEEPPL
Experimental: as §1
(§2) The determination of dose response curves for HDAC4, 5, 7 and 9 was performed as previously described with compound 4 as substrate (Abz-SRGGK(thio-TFA)FFRR-NH2). The substrate concentration was 50 µM and the enzyme concentration was 10 nM for HDAC4 and HDAC5, 5 nM for HDAC7 and 20 nM for HDAC9. HDAC11 inhibition assay was performed as described before. The fluorescence intensity was recorded with an Envision 2104 Multilabel Plate Reader (PerkinElmer, Waltham, MA) with an excitation wavelength of 330 ± 75 nm and an emission wavelength of 430 ± 8 nm.

human HDAC7 = biological target: T3, human HDAC7 (Homo sapiens, UniProt Q8WUI4); assay: HDAC7 dose response, substrate Abz-SRGGK(thio-TFA)FFRR-NH2; assay type: biochemical
T3 construct: made in house
T3 sequence (Q8WUI4 1-952): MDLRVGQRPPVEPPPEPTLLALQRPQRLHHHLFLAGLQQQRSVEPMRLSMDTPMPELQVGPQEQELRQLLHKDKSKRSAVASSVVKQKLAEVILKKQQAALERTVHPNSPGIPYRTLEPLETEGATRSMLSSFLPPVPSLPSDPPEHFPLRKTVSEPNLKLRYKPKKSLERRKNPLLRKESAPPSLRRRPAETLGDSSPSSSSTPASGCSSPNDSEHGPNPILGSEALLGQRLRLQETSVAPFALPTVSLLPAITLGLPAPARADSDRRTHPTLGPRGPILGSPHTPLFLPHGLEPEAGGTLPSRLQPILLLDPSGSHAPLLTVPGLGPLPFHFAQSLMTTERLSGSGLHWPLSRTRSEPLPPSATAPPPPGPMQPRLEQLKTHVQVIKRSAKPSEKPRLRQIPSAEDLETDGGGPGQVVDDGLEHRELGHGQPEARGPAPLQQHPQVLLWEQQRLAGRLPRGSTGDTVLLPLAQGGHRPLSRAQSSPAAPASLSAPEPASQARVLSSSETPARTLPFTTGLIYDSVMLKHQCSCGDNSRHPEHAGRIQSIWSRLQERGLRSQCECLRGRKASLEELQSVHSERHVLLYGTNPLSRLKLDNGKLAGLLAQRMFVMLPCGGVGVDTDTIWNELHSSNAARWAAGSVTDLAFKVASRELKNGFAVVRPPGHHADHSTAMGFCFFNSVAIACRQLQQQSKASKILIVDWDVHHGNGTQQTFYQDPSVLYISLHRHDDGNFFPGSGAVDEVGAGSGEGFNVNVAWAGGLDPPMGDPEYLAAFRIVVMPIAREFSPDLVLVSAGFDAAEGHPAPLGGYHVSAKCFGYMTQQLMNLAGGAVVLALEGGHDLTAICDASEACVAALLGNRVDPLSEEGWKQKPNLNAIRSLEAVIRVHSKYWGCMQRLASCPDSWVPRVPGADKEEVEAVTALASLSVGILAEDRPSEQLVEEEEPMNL
Experimental: as §1, §2

human HDAC11 = biological target: T4, human HDAC11 (Homo sapiens, UniProt Q96DB2); assay: HDAC11 inhibition assay; assay type: biochemical
T4 construct: made in house
T4 sequence (Q96DB2 1-347): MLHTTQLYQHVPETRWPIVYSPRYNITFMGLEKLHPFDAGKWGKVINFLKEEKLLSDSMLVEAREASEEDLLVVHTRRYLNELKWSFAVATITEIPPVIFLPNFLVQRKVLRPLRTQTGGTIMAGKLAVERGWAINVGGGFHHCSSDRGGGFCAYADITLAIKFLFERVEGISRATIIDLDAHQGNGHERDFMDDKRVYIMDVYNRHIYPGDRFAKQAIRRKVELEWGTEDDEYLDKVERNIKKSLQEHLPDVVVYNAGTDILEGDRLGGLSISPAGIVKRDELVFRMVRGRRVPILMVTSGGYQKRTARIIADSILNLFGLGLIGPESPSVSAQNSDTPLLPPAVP
Experimental: as §1, §2

in vitro = settings: human, HEK293 cells
Experimental: The cells were incubated for 48 h with the HDACi at a concentration of 50 µM, and cell viability was determined by the Alamar Blue assay.
To determine the cytotoxicity of the developed compounds on the human epithelial kidney, cell line HEK293 was used. HEK293 cells (DSMZ Braunschweig, ACC305) were incubated at 37 °C in a humidified incubator with 5% CO2 in Dulbecco’s Modified Eagle Medium (DMEM) supplemented with 10% FCS and 5 mM glutamine. Cells were seeded out at 1.5 x 10^3 cells per well in a 96-well cell culture plate (TPP, Switzerland). The compounds to be tested were added immediately to the medium at 50 µM. After 24 h, Alamar Blue reagent (Invitrogen, CA) was added according to the manufacturer’s instructions and incubated again for 21 h before samples were analyzed. Detection of viable cells which convert the resazurine reagent into the highly fluorescent resorufin was performed by using a FLUOstarOPTIMA microplate reader (BMG Labtec) with the following filter set: Ex 530 nm/Em 590 nm. Measurements were performed in triplicate and data are means with standard deviation <12%.

Compound: Cn1cc(CCN2CCN(c3cnc(C(=O)Nc4cc(-c5cccs5)ccc4N)cn3)CC2)c2ccccc21 [21a, N-(2-Amino-5-(thiophen-2-yl)phenyl)-5-(4-(2-(1-methyl-1H-indol-3-yl)ethyl)piperazin-1-yl)pyrazine-2-carboxamide]
- IC50 (human HDAC2): 2.47 ± 0.22 µM
- IC50 (human HDAC4): > 20 µM
- IC50 (human HDAC7): > 20 µM
- IC50 (human HDAC11): 7.5 ± 1 µM
- viability at 48 h, 50 µM (in vitro): 94.4%

Compound: Nc1ccccc1NC(=O)c1cnc(N2CCN(Cc3c[nH]c4ccccc34)CC2)cn1 [19f, 5-(4-((1H-indol-3-yl)methyl)piperazin-1-yl)-N-(2-aminophenyl)pyrazine-2-carboxamide]
- IC50 (human HDAC2): 0.28 ± 0.01 µM
- IC50 (human HDAC4): > 20 µM
- IC50 (human HDAC7): > 20 µM
- IC50 (human HDAC11): > 20 µM
- viability at 48 h, 50 µM (in vitro): 76.1%
